We go through 44 compounds from patent US10233186B2, “Inhibitors of activin receptor-like kinase” (BLUEPRINT MEDICINES CORPORATION, priority 2016, dated 2019).

For experiment [1], the target named is T1, human ALK2 R206H (Homo sapiens, UniProt Q04771, R206H).
T1 construct: expressed in transfected cells; host or cells: HEK293 (ATCC CRL1573), lentivirus transduction, blasticidin selection
T1 sequence (Q04771 21-509 R206H): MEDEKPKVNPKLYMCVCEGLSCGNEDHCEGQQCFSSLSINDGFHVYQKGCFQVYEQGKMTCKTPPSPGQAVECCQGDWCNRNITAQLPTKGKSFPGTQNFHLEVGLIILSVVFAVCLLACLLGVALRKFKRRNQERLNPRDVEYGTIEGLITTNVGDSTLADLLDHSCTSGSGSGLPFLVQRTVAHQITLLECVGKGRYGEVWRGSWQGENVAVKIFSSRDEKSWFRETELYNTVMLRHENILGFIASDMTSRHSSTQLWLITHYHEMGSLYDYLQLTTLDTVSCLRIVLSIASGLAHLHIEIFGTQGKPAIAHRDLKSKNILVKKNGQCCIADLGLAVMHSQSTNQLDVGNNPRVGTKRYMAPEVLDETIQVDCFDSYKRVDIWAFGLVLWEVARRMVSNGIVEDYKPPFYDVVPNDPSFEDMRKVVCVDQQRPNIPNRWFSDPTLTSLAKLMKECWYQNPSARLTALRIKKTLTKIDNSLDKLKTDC
Description: Cell-based ALK2-R206H cell activity assay (Smad1-Ser463/Ser465 phosphorylation by AlphaLISA in HEK293-ALK2-R206H cells). The conditions noted are these: read-out: Cell Line (Cell Assay IC50). The gist of the method:
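Stable HEK293 cells expressing C-terminally FLAG-tagged human ALK2 R206H (lentiviral, blasticidin-selected) were treated with compounds in 10-point, 3-fold dilutions from 10 μM or 1 μM top, in duplicate. Smad1 Ser463/Ser465 phosphorylation was read by AlphaLISA.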
On the technique in general: Alpha assays give light when donor and acceptor beads are brought close together.

Experiment [2] has as its target T2, ALK2 R206H (GST-tagged mutant ALK2) (Homo sapiens, UniProt Q04771, R206H).
T2 construct: purchased Carna Bioscience or ThermoFisher 09-148 or PV6232
T2 sequence (Q04771 21-509 R206H): T1 sequence (Q04771 21-509 R206H)
Description: ALK binding assay (LANTHASCREEN TR-FRET competitive binding, displacement of Kinase Tracer 178). The following applies: ALK2 R206H, LANTHASCREEN TR-FRET competitive binding; read-out: Binding Assay (IC50). On the technique in general: Time-resolved FRET reads energy transfer from a long-lived donor to a nearby acceptor.

Molecules are shown by their SMILES. Some results are limits rather than exact numbers.

One may read the IC50 as the concentration needed to halve the response being measured. For `CC(C)N1CCC(c2ccc(-c3cc4c(N5CCN(C(=O)[C@H]6C[C@@H]6C#N)[C@H](C)C5)ccnn4c3)cc2)CC1` [Compound 407], the IC50 was below 100 nM in experiment [1] and below 10 nM in experiment [2].
As for `CC(C)N1CCC[C@@H](c2ccc(-c3cc4c(N5CCN(C(=O)[C@H]6C[C@H](C#N)C6)CC5)ccnn4c3)cc2)C1` [Compound 408], the IC50 in experiment [1] was below 100 nM; in experiment [2], below 10 nM.
Turning to `CC(C)N1CCC[C@H](c2ccc(-c3cc4c(N5CCN(C(=O)[C@H]6C[C@H](C#N)C6)CC5)ccnn4c3)cc2)C1` [Compound 409], the IC50 was below 100 nM in experiment [1] and below 10 nM in experiment [2].
Take `CC(C)N1CCCC(c2ccc(-c3cc4c(N5CCN(C(=O)N6CC(C#N)C6)CC5)ccnn4c3)cc2)C1` (stereo not shown) [Compound 411]: the concentration for half-maximal inhibition (IC50) was 100 to 500 nM in experiment [1] and below 10 nM in experiment [2].
For the compound `CCN1CCC(c2ccc(-c3cc4c(N5CCN(C(=O)N6CC(C#N)C6)[C@H](C)C5)ccnn4c3)cc2)CC1` [Compound 412], the figures for the IC50 in experiment [1] and in experiment [2] were below 100 nM and below 10 nM, respectively.
Turning to `CC(C)N1CCN(c2ccc(-c3cc4c(N5CCN(C(=O)[C@H]6C[C@H](C#N)C6)CC5)ccnn4c3)cc2)CC1` [Compound 413], the IC50 in experiment [1] is below 100 nM; in experiment [2] it was below 10 nM.
In the same order, the values of `CCN1CCC(c2ccc(-c3cc4c(N5CCN(C(=O)C6CCC(C)CC6)CC5)ccnn4c3)cc2)CC1` (stereo not shown) [Compound 415] are below 100 nM and below 10 nM.
In the same order, the values of `CC(C)N1CC[C@H](c2ccc(-c3cc4c(N5CCN(C(=O)[C@H]6CC[C@H](O)CC6)CC5)ccnn4c3)cc2)C1` [Compound 418] are below 100 nM and below 10 nM.
In the same order, the values of `CC(C)N1CC[C@@H](c2ccc(-c3cc4c(N5CCN(C(=O)[C@H]6CC[C@H](O)CC6)CC5)ccnn4c3)cc2)C1` [Compound 419] are below 100 nM and below 10 nM.
For the compound `CC(C)N1CCC(c2ccc(-c3cc4c(N5CCN(C(=O)[C@H]6C[C@](C)(O)C6)CC5)ccnn4c3)cc2)CC1` [Compound 420], the half-inhibitory concentration (IC50) in experiment [1] was below 100 nM; in experiment [2], below 10 nM.
With `CC(C)N1CCC(c2ccc(-c3cc4c(N5CCN(C(=O)[C@H]6C[C@@](C)(O)C6)CC5)ccnn4c3)cc2)CC1` [Compound 421], the 50% inhibitory concentration (IC50) in experiment [1] was below 100 nM; in experiment [2] it was below 10 nM.
Taken in the same sequence, the figures for `CCN1CCN(c2ccc(-c3cc4c(N5CCN(C(=O)[C@H]6CC[C@H](O)CC6)CC5)ccnn4c3)cc2)CC1` [Compound 422] were below 100 nM and below 10 nM.
In the same order, the values of `CCN1CCC(c2ccc(-c3cc4c(N5CCN(C(=O)N6CCC(O)CC6)CC5)ccnn4c3)cc2)CC1` [Compound 423] are 100 to 500 nM and below 10 nM.
In the same order, the values of `CC(C)N1CC2(CN(c3ccc(-c4cc5c(N6CCN(C(=O)[C@H]7C[C@H](C#N)C7)CC6)ccnn5c4)cc3)C2)C1` [Compound 426] are below 100 nM and below 10 nM.
Take `CCN1CCN(c2ccc(-c3cc4c(N5CCN(C(=O)C6CC6)CC5)ccnn4c3)c(OC(F)F)c2)CC1` [Compound 427]: the results for the concentration for half-maximal inhibition (IC50) in experiment [1] and in experiment [2] were 100 to 500 nM and below 10 nM, respectively.
For the compound `CCN1CCC(c2ccc(-c3cc4c(N5CCN(C(=O)N6CCC(C#N)CC6)CC5)ccnn4c3)cc2)CC1` [Compound 428], the IC50 was 100 to 500 nM in experiment [1] and below 10 nM in experiment [2].
Consider `CCN1CCN(c2ccc(-c3cc4c(N5CCN(C(=O)[C@H]6CC[C@H](C#N)CC6)CC5)ccnn4c3)cc2)CC1` [Compound 429], for which the half-inhibitory concentration (IC50) is below 100 nM in experiment [1] and below 10 nM in experiment [2].
Taken in the same sequence, the figures for `CC(C)N1CCC(c2ccc(-c3cc4c(N5CCN(C(=O)OCC(F)(F)F)CC5)ccnn4c3)cc2)CC1` [Compound 430] were below 100 nM and below 10 nM.
For `CCN1CCC(c2ccc(-c3cc4c(N5CCN(C(=O)C6CCC(C)(O)CC6)CC5)ccnn4c3)cc2)CC1` (stereo not shown) [Compound 431], the IC50 was 100 to 500 nM in experiment [1] and below 10 nM in experiment [2].
Taken in the same sequence, the figures for `CC(C)N1CCC(c2ccc(-c3cc4c(N5CCN(C(=O)[C@H]6CC[C@H](O)CC6)CC5)ccnn4c3)nc2)CC1` [Compound 432] were below 100 nM and below 10 nM.
As to `CC(C)N1CCC[C@@H](c2ccc(-c3cc4c(N5CCN(C(=O)[C@H]6CC[C@H](C#N)CC6)CC5)ccnn4c3)cc2)C1` [Compound 434], the IC50 was below 100 nM in experiment [1] and below 10 nM in experiment [2].
Take `CC(C)N1CCC[C@H](c2ccc(-c3cc4c(N5CCN(C(=O)[C@H]6CC[C@H](C#N)CC6)CC5)ccnn4c3)cc2)C1` [Compound 435]: the IC50 was below 100 nM in experiment [1] and below 10 nM in experiment [2].
For the compound `CC(C)N1CCN(c2ccc(-c3cc4c(N5CCN(C(=O)[C@H]6CC[C@H](C#N)CC6)CC5)ccnn4c3)cc2)CC1` [Compound 436], the results for the IC50 in experiment [1] and in experiment [2] were below 100 nM and below 10 nM, respectively.
Taken in the same sequence, the figures for `CC(C)N1CCC(c2ccc(-c3cc4c(N5CCN(C(=O)[C@H]6CC[C@H](C#N)CC6)CC5)ccnn4c3)nc2)CC1` [Compound 437] were below 100 nM and below 10 nM.
In the same order, the values of `CC(C)N1CC2(CN(c3ccc(-c4cc5c(N6CCN(C(=O)[C@H]7CC[C@H](O)CC7)CC6)ccnn5c4)cc3)C2)C1` [Compound 441] are below 100 nM and below 10 nM.
Taken in the same sequence, the figures for `CC(C)N1CC2(CN(c3ccc(-c4cc5c(N6CCN(C(=O)[C@H]7CC[C@H](C#N)CC7)CC6)ccnn5c4)cc3)C2)C1` [Compound 442] were below 100 nM and below 10 nM.
With `CCN1CCC(c2ccc(-c3cc4c(N5CCN(C(=O)C6CC(O)(C(F)(F)F)C6)CC5)ccnn4c3)cc2)CC1` (stereo not shown) [Compound 445], the IC50 in experiment [1] is below 100 nM; in experiment [2], below 10 nM.
As for `CCN1CCN(c2ccc(-c3cc4c(N5CCN(C(=O)C6(c7cccc(Cl)c7)CC6)CC5)ccnn4c3)cc2)CC1` [Compound 447], the IC50 in experiment [1] is above 500 nM; in experiment [2], 10 to 50 nM.
In the same order, the values of `CCOC(=O)N1CCN(c2ccnn3cc(-c4cnc(N5CCN(C(C)C)CC5)cn4)cc23)CC1` [Compound 448, ethyl 4-(6-(5-(4-isopropylpiperazin-1-yl)pyrazin-2-yl)pyrrolo[1,2-b]pyridazin-4-yl)piperazine-1-carboxylate] are 100 to 500 nM and below 10 nM.
Taken in the same sequence, the figures for `O=C(C1CC1)N1CCN(c2ccnn3cc(-c4ccc([C@H]5CCCN5)nc4)cc23)CC1` [Compound 451] were below 100 nM and below 10 nM.
Take `O=C(C1CC1)N1CCN(c2ccnn3cc(-c4ccc(C5CCCN5)cn4)cc23)CC1` (stereo not shown) [Compound 452]: the 50% inhibitory concentration (IC50) in experiment [1] was below 100 nM; in experiment [2], below 10 nM.
Take `O=C(C1CC1)N1CCN(c2ccnn3cc(-c4ccc(C5CCCN5)cn4)cc23)CC1` (stereo not shown) [Compound 453]: the IC50 in experiment [1] was below 100 nM; in experiment [2] it was below 10 nM.
In the same order, the values of `O=C(C1CC1)N1CCN(c2ccnn3cc(-c4ccc(C5CCCN5)cn4)cc23)CC1` (stereo not shown) [Compound 454] are 100 to 500 nM and below 10 nM.
As to `CC(N)(CO)c1ccc(-c2cc3c(N4CCN(C(=O)C5CC5)CC4)ccnn3c2)cc1` (stereo not shown) [Compound 455], the 50% inhibitory concentration (IC50) in experiment [1] is below 100 nM; in experiment [2] it was below 10 nM.
`CCNC(=O)N1CCN(c2ccnn3cc(-c4ccc([C@@H]5CCCN5)nc4)cc23)CC1` [Compound 456]: the 50% inhibitory concentration (IC50) in experiment [1] is 100 to 500 nM; in experiment [2], below 10 nM.
Taken in the same sequence, the figures for `CCNC(=O)N1CCN(c2ccnn3cc(-c4ccc([C@H]5CCCN5)nc4)cc23)CC1` [Compound 457] were 100 to 500 nM and below 10 nM.
With `C[C@]1(c2ccc(-c3cc4c(N5CCN(C(=O)C6CC6)CC5)ccnn4c3)cc2)CCCN1` [Compound 459], the half-inhibitory concentration (IC50) is below 100 nM in experiment [1] and below 10 nM in experiment [2].
Taken in the same sequence, the figures for `C[C@@]1(c2ccc(-c3cc4c(N5CCN(C(=O)C6CC6)CC5)ccnn4c3)cc2)CCCN1` [Compound 460] were below 100 nM and below 10 nM.
In the same order, the values of `N[C@@H]1CCN(c2ccc(-c3cc4c(N5CCN(C(=O)C6CC6)CC5)ccnn4c3)cc2)C1` [Compound 462] are 100 to 500 nM and below 10 nM.
In the case of `CC1(c2ccc(-c3cc4c(N5CCN(C(=O)C6CC6)CC5)ccnn4c3)nc2)CCCN1` (stereo not shown) [Compound 463], the 50% inhibitory concentration (IC50) was below 100 nM in experiment [1] and below 10 nM in experiment [2].
Consider `O=C(C1CC1)N1CCN(c2ccnn3cc(-c4ccc(C5COCCN5)cc4)cc23)CC1` (stereo not shown) [Compound 464], for which the values for the half-inhibitory concentration (IC50) in experiment [1] and in experiment [2] were below 100 nM and below 10 nM, respectively.
For `CC(C)NC(=O)N1CCN(c2ccnn3cc(-c4ccc(C5CCCN5)cn4)cc23)CC1` (stereo not shown) [Compound 465], the half-maximal inhibitory concentration (IC50) in experiment [1] is 100 to 500 nM; in experiment [2], below 10 nM.
In the same order, the values of `CC(C)NC(=O)N1CCN(c2ccnn3cc(-c4ccc([C@@H]5CCCN5)cn4)cc23)CC1` [Compound 466] are below 100 nM and below 10 nM.
Taken in the same sequence, the figures for `CC(C)NC(=O)N1CCN(c2ccnn3cc(-c4ccc([C@H]5CCCN5)cn4)cc23)CC1` [Compound 467] were 100 to 500 nM and below 10 nM.
